The source of these data is publication PMC5443610 (Journal of Medicinal Chemistry, 2017).

Values after ≈ are worked out from the molar mass of the structure shown.

One data set addresses T1, BRPF1 BD (Homo sapiens, UniProt P55201).
T1 sequence (P55201 626-740): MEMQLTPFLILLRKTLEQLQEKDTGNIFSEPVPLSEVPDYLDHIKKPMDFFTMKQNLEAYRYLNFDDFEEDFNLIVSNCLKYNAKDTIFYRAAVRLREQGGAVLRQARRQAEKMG
The experiment in a line: TR-FRET binding competition assay.

The target in the next data set is T2, BRPF3 BD (Homo sapiens, UniProt Q9ULD4).
T2 sequence (Q9ULD4 592-711): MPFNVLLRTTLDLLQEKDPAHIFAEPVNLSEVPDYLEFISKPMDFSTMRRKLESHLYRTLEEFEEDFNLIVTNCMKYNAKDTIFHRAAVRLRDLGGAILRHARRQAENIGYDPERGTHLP
The experiment in a line: TR-FRET binding competition assay. A general note: In TR-FRET formats the signal depends on donor and acceptor labels being close together.

The target of the next data set is T3, TAF1L BD2 (Homo sapiens, UniProt Q8IZX4).
T3 sequence (Q8IZX4 1517-1649): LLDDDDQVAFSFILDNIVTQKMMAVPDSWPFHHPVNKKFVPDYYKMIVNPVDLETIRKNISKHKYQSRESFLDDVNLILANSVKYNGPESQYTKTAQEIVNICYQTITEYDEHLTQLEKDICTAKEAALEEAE
Kind of data set: biochemical. The format is binding.

The target of the next data set is T4, BRPF1 (Homo sapiens, UniProt P55201).
T4 sequence (P55201 628-732 limits assumed): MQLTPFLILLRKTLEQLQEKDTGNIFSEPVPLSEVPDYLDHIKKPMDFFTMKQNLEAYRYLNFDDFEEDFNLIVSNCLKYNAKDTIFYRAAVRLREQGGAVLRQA
The experiment in a line: AlphaScreen. The format is binding. For orientation: Alpha assays give light when donor and acceptor beads are brought close together.

The target in a further data set is T5, BRPF3 (Homo sapiens, UniProt Q9ULD4).
T5 sequence (Q9ULD4 589-693 limits assumed): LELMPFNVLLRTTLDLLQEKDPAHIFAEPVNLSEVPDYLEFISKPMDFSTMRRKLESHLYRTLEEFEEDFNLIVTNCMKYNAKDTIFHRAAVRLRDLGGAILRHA
Kind of data set: AlphaScreen. The class given is binding.

Another data set has as its target CREBBP (Homo sapiens, UniProt Q92793). The experiment in a line: AlphaScreen. The class given is binding.
The next data set has as its target CREBBP BD (Homo sapiens, UniProt Q92793). Kind of data set: Isothermal titration calorimetry. The class given is binding.
In the next data set the target is T6, BRPF1 BD/H4 (Homo sapiens, UniProt P55201).
T6 sequence (P55201 626-732): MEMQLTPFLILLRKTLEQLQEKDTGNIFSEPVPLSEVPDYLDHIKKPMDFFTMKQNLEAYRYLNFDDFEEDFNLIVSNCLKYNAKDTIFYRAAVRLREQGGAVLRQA
The experiment in a line: NanoBRET cellular assay. The class given is cell-based. Background: In BRET a luciferase serves as donor, and the signal depends on an acceptor being close.

For data set [1], the system named is panel containing over 300 kinases. Kind of data set: Kinase panel. The class given is biochemical. The conditions noted are these: 10 μM, all cases.
For the next data set, the system named is 68 potential targets. Kind of data set: LeadProfilingScreen. The conditions noted are these: 10 μM compound.
The nature of data set [2]: Metabolic stability in liver microsomes. The conditions noted are these: mouse liver microsomes. The class given is in vitro ADME.
The nature of data set [3]: Metabolic stability in liver microsomes. The format is in vitro ADME. The conditions noted are these: rat liver microsomes.
Data set [4] can be described thus: Metabolic stability in liver microsomes. The class given is in vitro ADME. The conditions noted are these: dog liver microsomes.
Data set [5] can be described thus: Metabolic stability in liver microsomes. The class given is in vitro ADME. The conditions noted are these: human liver microsomes.
Data set [6] in a line: Metabolic stability in hepatocytes. The format is in vitro ADME. The settings on record: rat hepatocytes.
The nature of the next data set: Caco2 permeability assay. The class given is in vitro ADME. The settings on record: human, Caco-2, pH 7.2, Caco2 Papp (B-A), 2 μM, 2 h.
Data set [7] in a line: In vivo rat pharmacokinetics. Also noted: species or system Wistar rat.
The next data set concerns the target T7, BRPF2 BD/H4 (Homo sapiens, UniProt O95696).
T7 sequence (O95696 560-666): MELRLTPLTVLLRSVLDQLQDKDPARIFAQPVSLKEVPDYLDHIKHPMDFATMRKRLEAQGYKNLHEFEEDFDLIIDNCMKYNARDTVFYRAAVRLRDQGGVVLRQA
Kind of data set: NanoBRET cellular assay. The format is cell-based. The settings on record: HCT116 cells.

The next data set relates to Caco2 cells. Kind of data set: Caco2 permeability assay. The class given is in vitro ADME.
A short description of data set [8]: Reversed-phase HPLC lipophilicity. The class given is physicochemical. The conditions noted are these: pH 7.5.
Data set [9] is described as follows: High-throughput aqueous solubility from DMSO solution. The format is physicochemical. The settings on record: pH 6.5 buffer.
The target of another data set is BRD4 BDs (Homo sapiens, UniProt O60885). The experiment in a line: AlphaScreen. The class given is binding.
The subject of the next data set is panel of 22 kinases. Kind of data set: Panel of 22 kinases. The format is biochemical. The settings on record: data not shown.

CREBBP BD, sequence (Q92793 1081-1197): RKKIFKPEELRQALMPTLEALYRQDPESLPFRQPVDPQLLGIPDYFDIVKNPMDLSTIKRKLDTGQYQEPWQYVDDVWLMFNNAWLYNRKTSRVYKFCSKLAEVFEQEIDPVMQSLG
CREBBP, sequence (Q92793 1081-1197): as above

For `Cc1cc2c(cc1N1C(=O)c3cccc4c(CCCO)ccc(c34)C1=O)n(C)c(=O)n2C` (racemic) [Compound 5, 6-(3-Hydroxypropyl)-2-(1,3,6-trimethyl-2-oxo-2,3-dihydro-1H-benzimidazol-5-yl)-1H-benzo[de]isoquinoline-1,3(2H)-dione], the half-inhibitory concentration (IC50) (as a rule, the concentration needed to halve the response being measured) was determined as 3.15 µM at BRPF1 BD (BRPF1 IC50, TR-FRET); 5.55 µM on BRPF3 BD; 0.106 µM against TAF1L BD2; 2.28 µM against BRPF1; 2.45 µM at BRPF3; 1.71 µM at CREBBP. Besides, the IC50 against BRPF1 BD/H4 was over 10 µM. The equilibrium dissociation constant (Kd) (in general, the concentration at which binding is half-saturated) at CREBBP BD is 1.39 µM. In addition, the “inhibition in kinase panel” value in data set [1] is reported as “less than 50%”. Also, the “inhibition or stimulation in LeadProfilingScreen” value in the data set with 68 potential targets is on record as at most 25%. Also, the CLblood is 3.17 mL/min/kg in data set [2]; 2.5 mL/min/kg in [3]; under 0.017 mL/min/kg in data set [4]; under 0.017 mL/min/kg in data set [5]; 63.3 mL/min/kg in data set [6]; 12.2 mL/min/kg in data set [7] (in vivo). The Fmax in [4] and in [5] was 100% throughout. The Papp B→A – broadly, how fast a substance crosses the layer from the basolateral side – at 2 h, 2 μM in “Caco2 permeability assay” turned out to be 19.1 ×10⁻⁶ cm/s. Moreover, the “blood clearance as share of hepatic blood flow” value in data set [7] is “ca. 17%”.
In turn, `Cc1cc2c(cc1N1C(=O)c3cccc4cccc(c34)C1=O)n(C)c(=O)n2C` [Compound 7, 2-(1,3,6-Trimethyl-2-oxo-2,3-dihydro-1H-benzimidazol-5-yl)-1H-benzo[de]isoquinoline-1,3(2H)-dione] returned an IC50 on BRPF2 BD/H4 of 0.47 µM.
On to `Cc1cc2c(cc1N1C(=O)c3cccc4c(CCCO)ccc(c34)C1=O)n(C)c(=O)n2C` (single isomer, unassigned) [atropisomer 2, (+)-6-(3-Hydroxypropyl)-2-(1,3,6-trimethyl-2-oxo-2,3-dihydro-1H-benzimidazol-5-yl)-1H-benzo[de]isoquinoline-1,3(2H)-dione], for which the concentration for half-maximal inhibition (IC50) at BRPF1 BD (BRPF1 IC50, TR-FRET) was 5.49 µM.
Turning to `Cc1cc2c(cc1N1C(=O)c3cccc4c(CCCO)ccc(c34)C1=O)n(C)c(=O)n2C` (single isomer, unassigned) [atropisomer 1, (−)-6-(3-Hydroxypropyl)-2-(1,3,6-trimethyl-2-oxo-2,3-dihydro-1H-benzimidazol-5-yl)-1H-benzo[de]isoquinoline-1,3(2H)-dione], the IC50 on BRPF1 BD (BRPF1 IC50, TR-FRET) was 5.86 µM.
Take `Cn1c(=O)n(C)c2cc(N3C(=O)c4cccc5cccc(c45)C3=O)ccc21` [Compound 6]: the IC50 on BRPF1 BD (BRPF1: inactive up to concentration, TR-FRET, HTS hit dose-response) is over 20 µM; on BRPF3 BD it was over 20 µM. Further, the “permeability profile in Caco2 cells” value in the data set with Caco2 cells was “excellent permeability profile”. Besides, the chromatographic logD (commonly a lipophilicity value derived from retention on a column) in [8] came out at 2.1. Moreover, the solubility (as a rule, the dissolved amount per volume that the medium holds) at 24 h in data set [9] is 3.7 µg/mL (≈ 10.4 µM).
Regarding `Cn1c(=O)[nH]c2cc(N3C(=O)c4cccc5c(CCCO)ccc(c45)C3=O)ccc21` [Compound 31, 6-(3-Hydroxypropyl)-2-(1-methyl-2-oxo-2,3-dihydro-1H-benzimidazol-5-yl)-1H-benzo[de]isoquinoline-1,3(2H)-dione], at BRPF3 (AlphaScreen), the “activity for BRPF3” value is “no activity”. Moreover, the “activity for BRD4 BDs” value at BRD4 BDs is given as “no activity”. The “no activity up to, panel of 22 kinases” value in the data set with panel of 22 kinases is over 10 µM.
On to `Cc1cc2c(cc1N1C(=O)c3cccc4c(Cl)ccc(c34)C1=O)n(C)c(=O)n2C` [Compound 13, 6-Chloro-2-(1,3,6-trimethyl-2-oxo-2,3-dihydro-1H-benzimidazol-5-yl)-1H-benzo[de]isoquinoline-1,3(2H)-dione], for which, at BRPF1 BD/H4 (NanoBRET), the “cellular activity for BRPF1” value is listed as “no activity”.
